The numbers were not newly measured in publication PMC12498288 (Frontiers in Immunology, 2025), which cites them from elsewhere.

The data set deals with SARS-CoV-2. Further details: method as in PMID 38319178. To be noted: hospitalized COVID-19 patients with a similar CSS as in RESPIRE; cited from earlier work.

Take `CC(C)C(=O)OC[C@H]1O[C@@H](n2ccc(NO)nc2=O)[C@H](O)[C@@H]1O` [molnupiravir]: the viral load reduction result was “no viral load reduction was observed”.
